Experimental data taken from US8557816B2, “Aurora kinase modulators and method of use” (Amgen Inc., priority 2007, dated 2013).

Key:
AuroraA-TPX2 = target: T1, AuroraA-TPX2 (Homo sapiens, UniProt O14965); assay: AuroraA-TPX2 Homogeneous Time Resolved Fluorescent (HTRF) kinase assay; type: biochemical; settings: average; read-out: AurA_IC50_IP (uM Avg)
T1 construct: 20 μL of AuroraA-TPX2 KD GST for a final volume of about 41 μL; GST
T1 sequence (O14965 133-383 limits assumed): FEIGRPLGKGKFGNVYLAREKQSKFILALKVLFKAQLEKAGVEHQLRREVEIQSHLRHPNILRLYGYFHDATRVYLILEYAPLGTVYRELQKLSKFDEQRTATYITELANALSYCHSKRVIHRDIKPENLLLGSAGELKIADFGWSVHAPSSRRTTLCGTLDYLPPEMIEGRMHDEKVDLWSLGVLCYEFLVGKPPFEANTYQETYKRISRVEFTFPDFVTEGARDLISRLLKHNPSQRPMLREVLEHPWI
T1 sequence (Q9ULW0 1-43 partner limits assumed): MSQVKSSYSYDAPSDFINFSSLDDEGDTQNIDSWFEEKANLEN
How it was run: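 HTRF read-out (Eu 615 nm to APC 655 nm) of phosphorylated biotin-PLK, detected with 0.02 nM europium anti-phosphoPLK antibody and 0.0005 mg/mL SA-APC after overnight equilibration.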

AuroraB = target: T2, AuroraB (Homo sapiens, UniProt Q96GD4); assay: AuroraB Homogeneous Time Resolved Fluorescent (HTRF) kinase assay; type: biochemical; settings: average; read-out: AurB_IC50_IP (uM Avg)
T2 construct: 20 μL of AuroraB FL H is for a final volume of 41 μL; His
T2 sequence (Q96GD4 whole entry): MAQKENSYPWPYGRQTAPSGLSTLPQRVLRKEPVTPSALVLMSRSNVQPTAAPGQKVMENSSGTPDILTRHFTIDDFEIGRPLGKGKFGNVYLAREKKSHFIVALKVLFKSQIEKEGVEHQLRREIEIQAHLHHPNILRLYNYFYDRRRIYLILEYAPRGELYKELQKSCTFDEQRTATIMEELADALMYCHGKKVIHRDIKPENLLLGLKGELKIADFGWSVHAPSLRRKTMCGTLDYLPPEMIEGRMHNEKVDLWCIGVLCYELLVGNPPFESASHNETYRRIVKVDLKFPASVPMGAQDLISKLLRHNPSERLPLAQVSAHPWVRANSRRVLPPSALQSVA
How it was run: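 Full-length His-tagged kinase phosphorylates biotinylated Histone H3 (0.1 μM final) with ATP in pH 7.5 HEPES containing MgCl, MnCl, DTT and BSA for about 90 min. EDTA-containing detection mix with SA-APC and Eu-anti-phosphoHistone H3 then equilibrated about 60 min; HTRF read with 320 nm excitation, emissions 615/655 nm.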

Row | Compound | IC50 (AuroraA-TPX2) | IC50 (AuroraB)
1 | CCc1cc(-c2ccccc2)nnc1Nc1ccc(Oc2ccnc3cc(C#N)ccc23)cc1 [compound 149, 4-((4-((4-ethyl-6-phenyl-3-pyridazinyl)amino)phenyl)oxy)-7-quinolinecarbonitrile] | 0.146 µM | 0.014 µM
2 | COc1cc2nccc(Oc3ccc(Nc4nnc(-c5cccc(C)n5)c5ccccc45)cc3)c2cc1OC [compound 150, N-(4-((6,7-bis(methyloxy)-4-quinolinyl)oxy)phenyl)-4-(6-methyl-2-pyridinyl)-1-phthalazinamine] | 0.014 µM | 0.007 µM
3 | COc1cnc2c(Oc3ccc(Nc4nnc(N5CCCCC5)c5ccccc45)cc3)ccnc2c1 [compound 151, N-(4-((7-(methyloxy)-1,5-naphthyridin-4-yl)oxy)phenyl)-4-(1-piperidinyl)-1-phthalazinamine] | 0.022 µM | 0.005 µM
4 | COc1cnc2c(Oc3ccc(Nc4nnc(-c5cc(C)cs5)c5ccccc45)cc3)ccnc2c1 [compound 152, N-(4-((7-(methyloxy)-1,5-naphthyridin-4-yl)oxy)phenyl)-4-(4-methyl-2-thienyl)-1-phthalazinamine] | 0.006 µM | 0.006 µM
5 | COc1cc2ncnc(Oc3ccc(Nc4nnc(-c5cc(C)cs5)c5ccccc45)cc3)c2cc1OC [compound 153, N-(4-((6,7-bis(methyloxy)-4-quinazolinyl)oxy)phenyl)-4-(4-methyl-2-thienyl)-1-phthalazinamine] | 0.009 µM | 0.012 µM
6 | COc1cnc2c(Oc3ccc(Nc4nnc(-c5ccc(Cl)c(C#N)c5)c5ccccc45)cc3)ccnc2c1 [compound 154, 2-chloro-5-(4-((4-((7-(methyloxy)-1,5-naphthyridin-4-yl)oxy)phenyl)amino)-1-phthalazinyl)benzonitrile] | 0.018 µM | 0.004 µM
7 | COc1cnc2c(Oc3ccc(Nc4nnc(-c5ccc(C(C)C)cc5)c5ccccc45)cc3)ccnc2c1 [compound 155, 4-(4-(1-methylethyl)phenyl)-N-(4-((7-(methyloxy)-1,5-naphthyridin-4-yl)oxy)phenyl)-1-phthalazinamine] | 0.029 µM | 0.011 µM
8 | CCCc1cc(-c2ccccc2)nnc1Nc1ccc(Oc2ccnc3cc(OC)cnc23)cc1 [compound 156, N-(4-((7-(methyloxy)-1,5-naphthyridin-4-yl)oxy)phenyl)-6-phenyl-4-propyl-3-pyridazinamine] | 0.047 µM | 0.005 µM
9 | COc1cnc2c(Oc3ccc(Nc4nnc(-c5ccc6c(c5)OCCN6C)c5ccccc45)cc3)ccnc2c1 [compound 157, 4-(4-methyl-3,4-dihydro-2H-1,4-benzoxazin-7-yl)-N-(4-((7-(methyloxy)-1,5-naphthyridin-4-yl)oxy)phenyl)-1-phthalazinamine] | 0.012 µM | 0.005 µM
10 | COc1cnc2c(Oc3ccc(Nc4nnc(-c5ccc(OC)nc5)c5ccccc45)cc3)ccnc2c1 [compound 158, N-(4-((7-(methyloxy)-1,5-naphthyridin-4-yl)oxy)phenyl)-4-(6-(methyloxy)-3-pyridinyl)-1-phthalazinamine] | 0.037 µM | 0.005 µM
11 | COc1cnc2c(Oc3ccc(Nc4nnc(-c5ccc6occc6c5)c5ccccc45)cc3)ccnc2c1 [compound 159, 4-(1-benzofuran-5-yl)-N-(4-((7-(methyloxy)-1,5-naphthyridin-4-yl)oxy)phenyl)-1-phthalazinamine] | 0.01 µM | 0.007 µM
12 | Cc1ccc(-c2nnc(Nc3ccc(Oc4ccnc5ccccc45)c(F)c3)c3ccccc23)cc1 [compound 161, N-(3-fluoro-4-(4-quinolinyloxy)phenyl)-4-(4-methylphenyl)-1-phthalazinamine] | 0.027 µM | 0.005 µM
13 | Cc1ccc(-c2nnc(Nc3ccc(Oc4ccnc5cc(C#N)ccc45)cc3)c3ccccc23)s1 [compound 162, 4-((4-((4-(5-methyl-2-thienyl)-1-phthalazinyl)amino)phenyl)oxy)-7-quinolinecarbonitrile] | 0.012 µM | 0.004 µM
14 | COc1cnc2c(Oc3ccc(Nc4nnc(-c5ccc(OC(F)(F)F)cc5)c5ccccc45)cc3)ccnc2c1 [compound 163, N-(4-((7-(methyloxy)-1,5-naphthyridin-4-yl)oxy)phenyl)-4-(4-((trifluoromethyl)oxy)phenyl)-1-phthalazinamine] | 0.072 µM | 0.009 µM
15 | COc1ccc2c(Oc3ccc(Nc4nnc(-c5ccccc5)c5ccccc45)cc3)c(F)cnc2c1 [compound 164, N-(4-((3-fluoro-7-(methyloxy)-4-quinolinyl)oxy)phenyl)-4-phenyl-1-phthalazinamine] | 0.04 µM | 0.003 µM
16 | COc1cnc2c(Oc3ccc(Nc4nnc(-c5ccc6c(c5)OCCO6)c5ccccc45)cc3)ccnc2c1 [compound 166, 4-(2,3-dihydro-1,4-benzodioxin-6-yl)-N-(4-((7-(methyloxy)-1,5-naphthyridin-4-yl)oxy)phenyl)-1-phthalazinamine] | 0.023 µM | 0.006 µM
17 | COc1cnc2c(Oc3ccc(Nc4nnc(-c5ccc6[nH]ccc6c5)c5ccccc45)cc3)ccnc2c1 [compound 167, 4-(1H-indol-5-yl)-N-(4-((7-(methyloxy)-1,5-naphthyridin-4-yl)oxy)phenyl)-1-phthalazinamine] | 0.013 µM | 0.004 µM
18 | COc1cnc2c(Oc3ccc(Nc4nnc(-c5ccc6c(c5)CCO6)c5ccccc45)cc3)ccnc2c1 [compound 168, 4-(2,3-dihydro-1-benzofuran-5-yl)-N-(4-((7-(methyloxy)-1,5-naphthyridin-4-yl)oxy)phenyl)-1-phthalazinamine] | 0.008 µM | 0.005 µM
19 | COc1cnc2c(Oc3ccc(Nc4nnc(-c5csc6ccccc56)c5ccccc45)cc3)ccnc2c1 [compound 169, 4-(1-benzothien-3-yl)-N-(4-((7-(methyloxy)-1,5-naphthyridin-4-yl)oxy)phenyl)-1-phthalazinamine] | 0.01 µM | 0.009 µM
20 | Cc1csc(-c2nnc(Nc3ccc(Oc4ccnc5cc(C#N)ccc45)cc3)c3ccccc23)c1 [compound 170, 4-((4-((4-(4-methyl-2-thienyl)-1-phthalazinyl)amino)phenyl)oxy)-7-quinolinecarbonitrile] | 0.016 µM | 0.009 µM
21 | COc1cnc2c(Oc3ccc(Nc4nnc(-c5cc6ccccc6s5)c5ccccc45)cc3)ccnc2c1 [compound 171, 4-(1-benzothien-2-yl)-N-(4-((7-(methyloxy)-1,5-naphthyridin-4-yl)oxy)phenyl)-1-phthalazinamine] | 0.013 µM | 0.015 µM
22 | COc1cnc2c(Oc3ccc(Nc4nnc(-c5ccc(C(F)(F)F)c(Cl)c5)c5ccccc45)cc3)ccnc2c1 [compound 172, 4-(3-chloro-4-(trifluoromethyl)phenyl)-N-(4-((7-(methyloxy)-1,5-naphthyridin-4-yl)oxy)phenyl)-1-phthalazinamine] | 0.039 µM | 0.017 µM
23 | COc1cnc2c(Oc3ccc(Nc4nnc(N5CC[C@H]6CCCC[C@H]6C5)c5ccccc45)cc3)ccnc2c1 [compound 173, N-(4-((7-(methyloxy)-1,5-naphthyridin-4-yl)oxy)phenyl)-4-((4aR,8aR)-octahydro-2(1H)-isoquinolinyl)-1-phthalazinamine] | 0.019 µM | 0.019 µM
24 | CCOc1nc(-c2nnc(Nc3ccc(Oc4ccnc5cc(OC)cnc45)cc3)c3ccccc23)cs1 [compound 175, 4-(2-(ethyloxy)-1,3-thiazol-4-yl)-N-(4-((7-(methyloxy)-1,5-naphthyridin-4-yl)oxy)phenyl)-1-phthalazinamine] | 0.013 µM | 0.003 µM
25 | COc1cnc2c(Oc3ccc(Nc4nnc(-c5cc6ccccc6o5)c5ccccc45)cc3)ccnc2c1 [compound 176, 4-(1-benzofuran-2-yl)-N-(4-((7-(methyloxy)-1,5-naphthyridin-4-yl)oxy)phenyl)-1-phthalazinamine] | 0.007 µM | 0.002 µM
26 | COc1cnc2c(Oc3ccc(Nc4nnc(-c5ccc(C(N)=O)cc5)c5ccccc45)cc3)ccnc2c1 [compound 177, 4-(4-((4-((7-(methyloxy)-1,5-naphthyridin-4-yl)oxy)phenyl)amino)-1-phthalazinyl)benzamide] | 0.206 µM | 0.004 µM
27 | COc1cnc2c(Oc3ccc(Nc4nnc(-c5ccc(C)nc5F)c5ccccc45)cc3)ccnc2c1 [compound 178, 4-(2-fluoro-6-methyl-3-pyridinyl)-N-(4-((7-(methyloxy)-1,5-naphthyridin-4-yl)oxy)phenyl)-1-phthalazinamine] | 0.035 µM | 0.002 µM
28 | O=C(Nc1cc(Oc2ccc(Nc3nnc(-c4ccccc4)c4ccccc34)cc2F)ccn1)N1CCOCC1 [compound 179, N-(4-((2-fluoro-4-((4-phenyl-1-phthalazinyl)amino)phenyl)oxy)-2-pyridinyl)-4-morpholinecarboxamide] | 0.18 µM | 0.043 µM
29 | COc1cnc2c(Oc3ccc(Nc4nnc(-c5ccc(F)c(OC)c5)c5ccccc45)cc3)ccnc2c1 [compound 180, 4-(4-fluoro-3-(methyloxy)phenyl)-N-(4-((7-(methyloxy)-1,5-naphthyridin-4-yl)oxy)phenyl)-1-phthalazinamine] | 0.027 µM | 0.004 µM
